The target in the experiment is ROS (Homo sapiens, UniProt P08922). The experiment is described as follows: In vitro ROS enzymatic reaction assay (HTRF, Cisbio). Type of experiment: biochemical. Details: ROS or EGFR enzyme, 0.008 ng/ul. The settings on record: for inhibition at 10 µM: read-out: Kinase Inhib. 10 uM (%); for inhibition at 5 µM / Kinase Inhib. 5 uM (%): compound at 5 uM; for inhibition at 5 µM: read-out: Kinase Inhib. 5 uM (%). The method, then:
The ROS enzymatic reactions were carried out with a high throughput screening platform for phosphor-detection of kinase activity. This platform based on homogeneous time resolved fluorescence (HTRF) technology from Cisbio Bioassays, Inc. (Cisbio). […] The reaction was allowed to proceed for 30 minutes at room temperature. An equal volume of detection buffer was then added to the reaction mix.

Structures are written as SMILES.

Sequence of ROS (P08922 28-2347): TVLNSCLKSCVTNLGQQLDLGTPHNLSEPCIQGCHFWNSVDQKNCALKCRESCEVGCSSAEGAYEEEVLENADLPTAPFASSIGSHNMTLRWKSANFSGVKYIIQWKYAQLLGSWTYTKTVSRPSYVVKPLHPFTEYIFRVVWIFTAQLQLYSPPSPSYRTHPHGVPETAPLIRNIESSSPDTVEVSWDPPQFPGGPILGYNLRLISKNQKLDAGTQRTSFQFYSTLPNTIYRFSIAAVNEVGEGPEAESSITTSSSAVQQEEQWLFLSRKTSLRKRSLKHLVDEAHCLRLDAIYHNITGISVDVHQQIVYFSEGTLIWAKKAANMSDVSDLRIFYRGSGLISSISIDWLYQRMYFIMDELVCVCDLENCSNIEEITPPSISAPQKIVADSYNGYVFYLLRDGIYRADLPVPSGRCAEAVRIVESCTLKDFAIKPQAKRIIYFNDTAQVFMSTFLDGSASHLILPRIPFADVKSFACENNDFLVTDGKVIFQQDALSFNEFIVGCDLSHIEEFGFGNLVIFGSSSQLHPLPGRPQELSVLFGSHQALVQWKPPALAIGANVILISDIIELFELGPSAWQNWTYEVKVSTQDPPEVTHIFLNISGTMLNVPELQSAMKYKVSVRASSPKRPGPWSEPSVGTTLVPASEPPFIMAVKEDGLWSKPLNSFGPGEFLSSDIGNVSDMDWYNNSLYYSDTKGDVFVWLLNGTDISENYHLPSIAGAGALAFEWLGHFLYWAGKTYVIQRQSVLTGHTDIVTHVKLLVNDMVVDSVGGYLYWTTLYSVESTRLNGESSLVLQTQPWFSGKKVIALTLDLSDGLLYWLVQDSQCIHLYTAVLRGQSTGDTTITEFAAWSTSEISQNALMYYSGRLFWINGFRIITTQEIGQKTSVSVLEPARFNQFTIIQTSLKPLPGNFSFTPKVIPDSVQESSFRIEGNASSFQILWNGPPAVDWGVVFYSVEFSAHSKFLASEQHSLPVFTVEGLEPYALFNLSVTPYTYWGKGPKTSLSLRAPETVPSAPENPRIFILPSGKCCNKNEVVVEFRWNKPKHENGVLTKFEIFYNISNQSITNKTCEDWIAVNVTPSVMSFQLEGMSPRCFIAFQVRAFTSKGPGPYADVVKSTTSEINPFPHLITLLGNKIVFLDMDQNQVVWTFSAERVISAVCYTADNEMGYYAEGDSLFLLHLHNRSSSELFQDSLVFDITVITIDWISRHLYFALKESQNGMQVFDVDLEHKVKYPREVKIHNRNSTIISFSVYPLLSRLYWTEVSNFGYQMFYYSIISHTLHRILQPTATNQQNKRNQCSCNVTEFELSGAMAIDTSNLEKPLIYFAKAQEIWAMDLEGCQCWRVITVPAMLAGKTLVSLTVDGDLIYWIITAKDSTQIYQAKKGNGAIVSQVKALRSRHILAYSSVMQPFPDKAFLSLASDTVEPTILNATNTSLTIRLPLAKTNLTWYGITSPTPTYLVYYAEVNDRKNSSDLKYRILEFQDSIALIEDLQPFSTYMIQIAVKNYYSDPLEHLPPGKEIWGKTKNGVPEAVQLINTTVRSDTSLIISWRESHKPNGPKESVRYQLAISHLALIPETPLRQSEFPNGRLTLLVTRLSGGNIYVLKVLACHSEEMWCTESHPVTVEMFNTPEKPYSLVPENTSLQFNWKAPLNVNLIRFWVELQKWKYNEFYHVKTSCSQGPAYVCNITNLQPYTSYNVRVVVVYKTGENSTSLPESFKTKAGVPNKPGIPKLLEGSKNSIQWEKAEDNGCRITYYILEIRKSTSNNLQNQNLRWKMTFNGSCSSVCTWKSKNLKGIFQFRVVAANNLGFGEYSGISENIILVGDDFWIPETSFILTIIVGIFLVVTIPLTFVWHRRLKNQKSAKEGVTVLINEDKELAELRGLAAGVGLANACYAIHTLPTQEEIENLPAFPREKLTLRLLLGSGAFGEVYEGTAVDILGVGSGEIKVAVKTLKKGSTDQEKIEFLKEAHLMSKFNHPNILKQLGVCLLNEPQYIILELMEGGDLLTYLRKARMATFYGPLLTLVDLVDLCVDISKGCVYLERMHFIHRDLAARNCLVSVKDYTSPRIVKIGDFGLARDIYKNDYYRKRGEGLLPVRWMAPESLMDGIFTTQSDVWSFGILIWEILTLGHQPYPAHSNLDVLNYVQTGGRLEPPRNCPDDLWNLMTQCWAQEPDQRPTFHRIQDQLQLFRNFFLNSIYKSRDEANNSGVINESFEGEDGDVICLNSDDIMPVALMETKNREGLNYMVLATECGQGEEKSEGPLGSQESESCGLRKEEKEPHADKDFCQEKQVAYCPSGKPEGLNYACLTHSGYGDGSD

In the case of `O=C1NCCN1CCN1C(=O)c2ccccc2N[C@H]1c1ccccc1` [drawing 254], the inhibition at 10 µM (ROS kinase, compound at 10 uM) amounted to 20.3%. One may read the IC50 as the concentration needed to halve the response being measured. A high value points to lower potency. Consider `O=C1NN=C(c2ccccc2)/C1=C1\OC(c2ccccc2)=CS1` [drawing 255], for which the IC50 was 160 nM. The inhibition at 5 µM (ROS kinase) was 69.2%. Moreover, the inhibition at 10 µM (ROS kinase, compound at 10 uM) was 77.8%. Turning to `Cc1ccc(-n2cc(-c3cccs3)nc2SCc2n[nH]c(=S)n2Cc2ccccc2)cc1` [drawing 256], the “Kinase Inhib. 10 uM (%)” value (ROS kinase, compound at 10 uM) amounted to 28.13%. `Oc1[nH]nc2nnc(-c3ccccc3)c(-c3ccccc3)c12` [drawing 257] came in with a half-maximal inhibitory concentration (IC50) of 20400 nM. Further, the inhibition at 10 µM (ROS kinase, compound at 10 uM) was 35.6%. Compound `Nc1nc(N)n(-c2ccccc2)/c(=N/c2ccccc2)n1` [drawing 258] came in with an IC50 above 100000 nM. The inhibition at 10 µM (ROS kinase, compound at 10 uM) is 34.5%. For `CSc1sc(-c2n[nH]cc2Br)c2c1C(=O)CC(C)(C)C2` [drawing 259], in that order: 10000 nM and 34%. For `FC(F)(F)c1cc(-n2c(Cc3cccc4ccccc34)n[nH]c2=S)cc(C(F)(F)F)c1` [drawing 260], the “Kinase Inhib. 5 uM (%)” value (ROS kinase) is on record as 28.49%. For `Cc1nc2cc(C(=O)N[C@H](c3ccccc3)c3cccnc3)ccc2[nH]1` [drawing 261], the inhibition at 5 µM (ROS kinase) amounted to 23.6%. Take `Cc1cc(C)c(NC(=O)c2cc3ccccc3c(=O)s2)c(-c2cc(C)[nH]n2)c1` [drawing 263]: under “ROS kinase”, the “Kinase Inhib. 5 uM (%)” value turned out to be 21.55%. For `NC(=O)c1c(NC(=O)Nc2ccccc2)sc2c1CCCC2` [drawing 264], the inhibition at 5 µM (ROS kinase) stood at 37.1%. On to `Cn1c(=O)c2c(nc3n(CCO)c(-c4ccccc4)cn23)n(C)c1=O` [drawing 265], for which the “Kinase Inhib. 5 uM (%)” value (ROS kinase) came to 26.87%. For `CC1=NNC(=O)/C1=C\c1cn(-c2ccccc2)nc1-c1ccccc1` [drawing 266], inhibition was half-maximal at 1220 nM (IC50). Also, the inhibition at 5 µM (ROS kinase) came to 62%. Turning to `Cc1ccc(F)cc1S(=O)(=O)Nc1cccc(C(=O)OCC(=O)NC2CCCCC2)c1` [drawing 267], where the note is “ROS kinase”, the inhibition at 5 µM came out at 20%. As to `O=C1c2ccccc2C(=O)N1C[C@H](O)Cn1nc(-c2cccs2)c2ccccc2c1=O` [drawing 268], the “Kinase Inhib. 5 uM (%)” value (ROS kinase) is reported as 20.74%. On to `O=c1c(O)c(-c2ccc(O)c(O)c2)oc2cc(O)cc(O)c12` [drawing 269], for which the IC50 was 50 nM. In addition, where the note is “ROS kinase”, the inhibition at 5 µM came to 99.6%. For the same compound, where the note is “ROS kinase, compound at 10 uM”, the inhibition at 10 µM is 98.2%. With `O=C(NCC1CCCCC1)c1cccc(Nc2nccc(Nc3ccc4ncsc4c3)n2)c1` [drawing 270], the inhibition at 5 µM (ROS kinase) is 32.6%. `CC(C)(CO)NC(=O)c1cccc(Nc2nccc(Nc3ccc4ncsc4c3)n2)c1` [drawing 271] showed a half-maximal inhibitory concentration (IC50) of 361 nM. Also, for the setting “ROS kinase”, the inhibition at 5 µM was 96.3%. As for `Nc1nc(Nc2ccc(C(=O)N3CCCCCC3)cc2)cc(Nc2ccc3ncsc3c2)n1` [drawing 272], the “Kinase Inhib. 5 uM (%)” value (ROS kinase) is 22.67%. In turn, `O=C(NCc1cccs1)c1cccc(Nc2nccc(Nc3ccc4ncsc4c3)n2)c1` [drawing 273] had a half-inhibitory concentration (IC50) of 435 nM. Further, under “ROS kinase”, the inhibition at 5 µM worked out at 101%. As for `O=C(NCCN1CCOCC1)c1cccc(Nc2nccc(Nc3ccc4ncsc4c3)n2)c1` [drawing 274], the inhibition at 5 µM (ROS kinase) was found to be 101%. Turning to `Cc1cccc(Nc2nccc(Nc3cccc(C(=O)NCc4ccccc4F)c3)n2)c1` [drawing 275], the inhibition at 5 µM (ROS kinase) was 33.3%. Turning to `CN(C)CC(C)(C)CNC(=O)c1cccc(Nc2nccc(Nc3ccc4ncsc4c3)n2)c1` [drawing 276], the 50% inhibitory concentration (IC50) worked out at 271 nM. Under “ROS kinase”, the inhibition at 5 µM came out at 101%.

On to `CN1CCN(C(=O)c2cccc(Nc3nccc(Nc4ccc5ncsc5c4)n3)c2)CC1` [drawing 278], for which the midpoint of inhibition, the IC50, lay at 140 nM. Also, the inhibition at 5 µM (ROS kinase) was found to be 99.4%. With `Cc1cccc(Nc2nccc(Nc3cccc(C(=O)NCCCN4CCOCC4)c3)n2)c1` [drawing 279], the inhibition at 5 µM (ROS kinase) was 92.9%. In the case of `Nc1nc(Nc2ccc(C(=O)NCCc3ccncc3)cc2)cc(Nc2ccc3ncsc3c2)n1` [drawing 280], the inhibition at 5 µM (ROS kinase) was 61.1%. Consider `O=C(NCCc1ccccc1)c1cccc(Nc2nccc(Nc3ccc4ncsc4c3)n2)c1` [drawing 281], for which, for the setting “ROS kinase”, the “Kinase Inhib. 5 uM (%)” value is 94.23%. Take `Cc1ccc(CNC(=O)c2cccc(Nc3nccc(Nc4ccc5ncsc5c4)n3)c2)o1` [drawing 282]: the midpoint of inhibition, the IC50, lay at 196 nM. Further, where the note is “ROS kinase”, the inhibition at 5 µM came to 99.1%.

Regarding `C[C@H](O)CN(C[C@H](C)O)C(=O)c1cccc(Nc2nccc(Nc3ccc4ncsc4c3)n2)c1` [drawing 283], the inhibition at 5 µM (ROS kinase) amounted to 101%. Compound `O=C(c1cccc(Nc2nccc(Nc3ccc4ncsc4c3)n2)c1)N1CCCCCC1` [drawing 284] registered a half-maximal inhibitory concentration (IC50) of 450 nM. Where the note is “ROS kinase”, the inhibition at 5 µM amounted to 100%. For the compound `Cc1cccc(Nc2nccc(Nc3cccc(C(=O)NC4CCN(C)CC4)c3)n2)c1` [drawing 285], the IC50 was 1420 nM. Also, the inhibition at 5 µM (ROS kinase) amounted to 98.6%. On to `O=C(NCc1ccc(F)cc1)c1cccc(Nc2nccc(Nc3ccc4ncsc4c3)n2)c1` [drawing 286], for which the IC50 was found to be 582 nM. Besides, under “ROS kinase”, the inhibition at 5 µM amounted to 101%. The like results for `CC(C)CN(CC(C)C)C(=O)c1cccc(Nc2nccc(Nc3ccc4ncsc4c3)n2)c1` [drawing 287] were, in that order, 1300 nM and 99.6%. Turning to `Cc1cccc(Nc2nccc(Nc3cccc(C(=O)N(C)CCCN(C)C)c3)n2)c1` [drawing 288], the inhibition at 5 µM (ROS kinase) amounted to 98.6%. Regarding `O=C(COc1ccccc1)NCC(c1cccs1)S(=O)(=O)c1ccc(Cl)cc1` (stereo not shown) [drawing 290], half-maximal inhibition (IC50) was put at 1780 nM. Besides, the inhibition at 5 µM (ROS kinase) came to 83.8%. Besides, under “ROS kinase, compound at 10 uM”, the inhibition at 10 µM is 102%. In the case of `Cc1cccc(C(=O)n2nc(-c3ccco3)nc2NCc2ccccc2)c1` [drawing 294], the “Kinase Inhib. 5 uM (%)” value (ROS kinase) was found to be 25.09%.

Turning to `O=C(c1ccccc1)n1nc(-c2ccco2)nc1NCc1ccc(Cl)cc1` [drawing 295], the inhibition at 5 µM (ROS kinase) was 26.6%. With `O=C(NCC(c1cccs1)S(=O)(=O)c1ccc(F)cc1)c1ccccc1` (stereo not shown) [drawing 297], half-maximal inhibition (IC50) was put at 480 nM. The inhibition at 5 µM (ROS kinase) was determined as 85.1%.

In turn, `O=C(c1cccc(Nc2nccc(Nc3ccc4ncsc4c3)n2)c1)N1CCCCC1` [drawing 301] had an IC50 of 392 nM. For the same compound, the inhibition at 5 µM (ROS kinase) turned out to be 100%. `CC(C)c1nc(Nc2ccc3ncsc3c2)nc(N2CCCC2)n1` [drawing 314] registered an IC50 above 5000 nM. Moreover, the inhibition at 5 µM (ROS kinase) worked out at 20.9%. Turning to `CC(C)c1nc(Nc2ccc3ncsc3c2)nc(N2CCOCC2)n1` [drawing 315], the IC50 was above 5000 nM. The inhibition at 5 µM (ROS kinase) came to 23.5%. As to `CC(C)c1nc(Nc2ccc(C(=O)NCc3ccccc3)cc2)nc(Nc2cccc(Cc3nc4ccccc4s3)c2)n1` [drawing 316], the IC50 was above 5000 nM. Also, the inhibition at 5 µM (ROS kinase) was 45.1%.

With `CC(C)c1nc(Nc2ccc(C(=O)NCC3CCCCC3)cc2)nc(Nc2cccc(Cc3nc4ccccc4s3)c2)n1` [drawing 317], the half-maximal inhibitory concentration (IC50) was above 5000 nM. In addition, where the note is “ROS kinase”, the inhibition at 5 µM amounted to 25.3%. The like results for `CC(C)c1nc(Nc2ccc(C(=O)N3CCCCC3)cc2)nc(Nc2ccc3ncsc3c2)n1` [drawing 318] were, in that order, above 5000 nM and 58.6%. In turn, `CC(C)c1nc(Nc2ccc(C(=O)NC3CCCCC3)cc2)nc(Nc2ccc3ncsc3c2)n1` [drawing 319] came in with a concentration for half-maximal inhibition (IC50) of 760 nM. Besides, the inhibition at 5 µM (ROS kinase) amounted to 98.8%. For `CC(C)c1nc(Nc2ccc(C(=O)N3CCCC3)cc2)nc(Nc2ccc3ncsc3c2)n1` [drawing 320], the IC50 is 1880 nM. In addition, the inhibition at 5 µM (ROS kinase) came out at 92.5%. Compound `CC(C)c1nc(Nc2ccc(C(=O)N3CCN(C)CC3)cc2)nc(Nc2ccc3ncsc3c2)n1` [drawing 321] came in with a half-inhibitory concentration (IC50) of 3890 nM. Moreover, where the note is “ROS kinase”, the inhibition at 5 µM came to 90.7%. For `CC(C)c1nc(Nc2ccc(C(=O)NCc3ccccc3)cc2)nc(Nc2ccc3ncsc3c2)n1` [drawing 322], in that order: 3690 nM and 97.4%. The like results for `CC(C)c1nc(Nc2ccc(C(=O)N3CCOCC3)cc2)nc(Nc2ccc3ncsc3c2)n1` [drawing 323] were, in that order, 333 nM and 65.7%. `CC(C)c1nc(Nc2ccc(N)cc2)nc(Nc2cc(C3CC3)[nH]n2)n1` [drawing 324] returned a 50% inhibitory concentration (IC50) above 5000 nM. In addition, the inhibition at 5 µM (ROS kinase) was determined as 20.4%.

Regarding `Cc1ccc(NC(=O)CCn2ccc3ccccc32)cc1` [drawing 335], the inhibition at 10 µM (ROS kinase, compound at 10 uM) is 27.5%. Turning to `CCOC(=O)c1ccc(NC(=O)CCn2ccc3ccccc32)cc1` [drawing 336], the inhibition at 10 µM (ROS kinase, compound at 10 uM) came out at 24.5%. The same measure, in the same setting: then `COc1ccc(NC(=O)CCn2ccc3ccccc32)cc1` [drawing 337], with 29.5%; and `O=C(CCn1ccc2ccccc21)Nc1ccc(F)cc1` [drawing 338], with 23.2%.

Take `COc1ccc(C(F)(F)F)cc1NC(=O)CCn1ccc2ccccc21` [drawing 339]: the inhibition at 10 µM (ROS kinase, compound at 10 uM) was 26.4%. As to `O=C(CCn1ccc2ccccc21)Nc1cnccn1` [drawing 340], the inhibition at 10 µM (ROS kinase, compound at 10 uM) amounted to 14.3%. On to `CCc1cc(Br)ccc1NC(=O)CCn1ccc2ccccc21` [drawing 341], for which the inhibition at 10 µM (ROS kinase, compound at 10 uM) turned out to be 20.8%. On the same count and under the same terms, then `NC(Cc1ccccc1)C(=O)n1ccc2cccnc21` (stereo not shown) [drawing 342], with 26.9%. With `Cc1cc(-c2ccccc2)c2ccc(N)nc2n1` [drawing 343], the inhibition at 10 µM (ROS kinase, compound at 10 uM) was found to be 28.9%.

On to `Nc1cccc2cccc(N=C(CC(=O)O)C(=O)O)c12` [drawing 344], for which, for the setting “ROS kinase, compound at 10 uM”, the inhibition at 10 µM was determined as 24.6%.

`COc1ccc(NC(=O)CC2=Nc3cccc4cccc(c34)NC2=O)cc1` [drawing 345]: the inhibition at 10 µM (ROS kinase, compound at 10 uM) came out at 26.5%. As for `O=C(CC1=Nc2cccc3cccc(c23)NC1=O)NCc1cccc(I)c1` [drawing 346], the inhibition at 10 µM (ROS kinase, compound at 10 uM) came to 22.5%. `C[C@@H](Oc1cc(-c2cnn(C3CCNCC3)c2)cnc1N)c1c(Cl)ccc(F)c1Cl` [drawing 354]: the inhibition at 5 µM (ROS kinase) is 100%.
